Measured values from ChEMBL document CHEMBL2331144, “Synthesis and anticancer activity of analogues of phenstatin, with a phenothiazine A-ring, as a new class of microtubule-targeting agents” (Bioorg Med Chem Lett, 2013).

How the values were obtained:
A549 = assay: Growth inhibition of human A549/ATCC cells after 48 hrs by sulforhodamine B assay; type: functional; conditions: A549, 48 h
CAKI-1 = assay: Growth inhibition of human CAKI-1 cells after 48 hrs by sulforhodamine B assay; type: functional; conditions: CAKI-1, 48 h
RXF 393 = assay: Growth inhibition of human RXF393 cells after 48 hrs by sulforhodamine B assay; type: functional; conditions: RXF 393, 48 h
[1] = Growth inhibition of human EKVX cells after 48 hrs by sulforhodamine B assay; type: functional
HOP-62 = assay: Growth inhibition of human HOP62 cells after 48 hrs by sulforhodamine B assay; type: functional; conditions: HOP-62, 48 h
OVCAR-5 = assay: Growth inhibition of human OVCAR5 cells after 48 hrs by sulforhodamine B assay; type: functional; conditions: OVCAR-5, 48 h
SF-268 = assay: Growth inhibition of human SF268 cells after 48 hrs by sulforhodamine B assay; type: functional; conditions: SF-268, 48 h
LOX IMVI = assay: Growth inhibition of human LOXIMVI cells after 48 hrs by sulforhodamine B assay; type: functional
NCI-H460 = assay: Growth inhibition of human NCI-H460 cells after 48 hrs by sulforhodamine B assay; type: functional; conditions: NCI-H460, 48 h
OVCAR-4 = assay: Growth inhibition of human OVCAR4 cells after 48 hrs by sulforhodamine B assay; type: functional; conditions: OVCAR-4, 48 h
HOP-92 = assay: Growth inhibition of human HOP92 cells after 48 hrs by sulforhodamine B assay; type: functional; conditions: HOP-92, 48 h
SF-539 = assay: Growth inhibition of human SF539 cells after 48 hrs by sulforhodamine B assay; type: functional; conditions: SF-539, 48 h
Ovis aries = species: Ovis aries; assay: Inhibition of sheep brain tubulin polymerization at 100 uM using DAPI by fluorimetry
CCRF-CEM = assay: Growth inhibition of human CCRF-CEM cells after 48 hrs by sulforhodamine B assay; type: functional
K562 = assay: Growth inhibition of human K562 cells after 48 hrs by sulforhodamine B assay; type: functional; conditions: K562, 48 h
SW-620 = assay: Growth inhibition of human SW620 cells after 48 hrs by sulforhodamine B assay; type: functional; conditions: SW-620, 48 h
SK-OV-3 = assay: Growth inhibition of human SKOV3 cells after 48 hrs by sulforhodamine B assay; type: functional; conditions: SK-OV-3, 48 h
HT-29 = assay: Growth inhibition of human HT-29 cells after 48 hrs by sulforhodamine B assay; type: functional; conditions: HT-29, 48 h
DU-145 = assay: Growth inhibition of human DU145 cells after 48 hrs by sulforhodamine B assay; type: functional; conditions: DU-145, 48 h
HCT-116 = assay: Growth inhibition of human HCT116 cells after 48 hrs by sulforhodamine B assay; type: functional; conditions: HCT-116, 48 h
UACC-62 = assay: Growth inhibition of human UACC62 cells after 48 hrs by sulforhodamine B assay; type: functional; conditions: UACC-62, 48 h
[2] = Growth inhibition of human HCC2998 cells after 48 hrs by sulforhodamine B assay; type: functional; conditions: HCC 2998, 48 h
BT-549 = assay: Growth inhibition of human BT549 cells after 48 hrs by sulforhodamine B assay; type: functional; conditions: BT-549, 48 h
OVCAR-3 = assay: Growth inhibition of human OVCAR3 cells after 48 hrs by sulforhodamine B assay; type: functional; conditions: OVCAR-3, 48 h
TK-10 = assay: Growth inhibition of human TK10 cells after 48 hrs by sulforhodamine B assay; type: functional; conditions: TK-10, 48 h
[3] = Growth inhibition of human Hs 578T cells after 48 hrs by sulforhodamine B assay; type: functional
SNB-75 = assay: Growth inhibition of human SNB75 cells after 48 hrs by sulforhodamine B assay; type: functional; conditions: SNB-75, 48 h
MDA-MB-231 = assay: Growth inhibition of human MDA-MB-231 cells after 48 hrs by sulforhodamine B assay; type: functional; conditions: MDA-MB-231, 48 h
SR = assay: Growth inhibition of human SR cells after 48 hrs by sulforhodamine B assay; type: functional
PC-3 = assay: Growth inhibition of human PC3 cells after 48 hrs by sulforhodamine B assay; type: functional; conditions: PC-3, 48 h
M14 = assay: Growth inhibition of human M14 cells after 48 hrs by sulforhodamine B assay; type: functional; conditions: M14, 48 h
SK-MEL-5 = assay: Growth inhibition of human SK-MEL-5 cells after 48 hrs by sulforhodamine B assay; type: functional; conditions: SK-MEL-5, 48 h
UACC-257 = assay: Growth inhibition of human UACC257 cells after 48 hrs by sulforhodamine B assay; type: functional; conditions: UACC-257, 48 h
SF-295 = assay: Growth inhibition of human SF295 cells after 48 hrs by sulforhodamine B assay; type: functional; conditions: SF-295, 48 h
Malme-3M = assay: Growth inhibition of human MALME-3M cells after 48 hrs by sulforhodamine B assay; type: functional
COLO 205 = assay: Growth inhibition of human COLO205 cells after 48 hrs by sulforhodamine B assay; type: functional; conditions: COLO 205, 48 h
UO-31 = assay: Growth inhibition of human UO31 cells after 48 hrs by sulforhodamine B assay; type: functional; conditions: UO-31, 48 h
HCT-15 = assay: Growth inhibition of human HCT15 cells after 48 hrs by sulforhodamine B assay; type: functional; conditions: HCT-15, 48 h
MDA-MB-435 = assay: Growth inhibition of human MDA-MB-435 cells after 48 hrs by sulforhodamine B assay; type: functional; conditions: MDA-MB-435, 48 h
IGROV-1 = assay: Growth inhibition of human IGROV1 cells after 48 hrs by sulforhodamine B assay; type: functional; conditions: IGROV-1, 48 h
MCF7 = assay: Growth inhibition of human MCF7 cells after 48 hrs by sulforhodamine B assay; type: functional; conditions: MCF7, 48 h
A498 = assay: Growth inhibition of human A498 cells after 48 hrs by sulforhodamine B assay; type: functional; conditions: A498, 48 h
RPMI-8226 = assay: Growth inhibition of human RPMI8226 cells after 48 hrs by sulforhodamine B assay; type: functional; conditions: RPMI-8226, 48 h
NCI-H522 = assay: Growth inhibition of human NCI-H522 cells after 48 hrs by sulforhodamine B assay; type: functional; conditions: NCI-H522, 48 h
OVCAR-8 = assay: Growth inhibition of human OVCAR8 cells after 48 hrs by sulforhodamine B assay; type: functional; conditions: OVCAR-8, 48 h
786-0 = assay: Growth inhibition of human 786-0 cells after 48 hrs by sulforhodamine B assay; type: functional; conditions: 786-0, 48 h
[4] = Growth inhibition of human NCI-ADR-RES cells after 48 hrs by sulforhodamine B assay; type: functional
MOLT-4 = assay: Growth inhibition of human MOLT4 cells after 48 hrs by sulforhodamine B assay; type: functional; conditions: MOLT-4, 48 h
HL-60(TB) = assay: Growth inhibition of human HL-60(TB) cells after 48 hrs by sulforhodamine B assay; type: functional; conditions: HL-60, 48 h
KM12 = assay: Growth inhibition of human KM12 cells after 48 hrs by sulforhodamine B assay; type: functional; conditions: KM12, 48 h
NCI-H23 = assay: Growth inhibition of human NCI-H23 cells after 48 hrs by sulforhodamine B assay; type: functional; conditions: NCI-H23, 48 h
ACHN = assay: Growth inhibition of human ACHN cells after 48 hrs by sulforhodamine B assay; type: functional
SN12C = assay: Growth inhibition of human SN12C cells after 48 hrs by sulforhodamine B assay; type: functional
SK-MEL-28 = assay: Growth inhibition of human SK-MEL-28 cells after 48 hrs by sulforhodamine B assay; type: functional; conditions: SK-MEL-28, 48 h
T47D = assay: Growth inhibition of human T47D cells after 48 hrs by sulforhodamine B assay; type: functional

With CCOC(=O)c1cc(C(=O)N2c3ccccc3Sc3ccccc32)n2c(C)cccc12 the GI50 (A549) was 3.81 µM, the GI50 (CAKI-1) was 6.23 µM and the GI50 (RXF 393) was 2.77 µM. The GI50 [1] was 5.84 µM, the GI50 (HOP-62) was 6.14 µM and the GI50 (OVCAR-5) was 65.8 µM. The GI50 (SF-268) was 7.11 µM, the GI50 (LOX IMVI) was 4.57 µM and the GI50 (NCI-H460) was 3.75 µM. The GI50 (OVCAR-4) was 7.93 µM, the GI50 (HOP-92) was 2.69 µM and the GI50 (SF-539) was 4.13 µM. The inhibition (Ovis aries) was 31%, the GI50 (CCRF-CEM) was 2.39 µM and the GI50 (K562) was 3.78 µM. For the same compound, the GI50 (SW-620) was 3.14 µM, the GI50 (SK-OV-3) was 4.04 µM and the GI50 (HT-29) was 2.95 µM. It also gave a GI50 (DU-145) of 8.22 µM, a GI50 (HCT-116) of 2.89 µM and a GI50 (UACC-62) of 2.55 µM. It also gave a GI50 [2] of 6.71 µM, a GI50 (BT-549) of 2.93 µM and a GI50 (OVCAR-3) of 4.24 µM. The GI50 (TK-10) was 6.73 µM, the GI50 [3] was 1.5 µM and the GI50 (SNB-75) was 1.88 µM. For the same compound, the GI50 (MDA-MB-231) was 6.04 µM, the GI50 (SR) was 2.42 µM and the GI50 (PC-3) was 2.2 µM. For the same compound, the GI50 (M14) was 2.6 µM, the GI50 (SK-MEL-5) was 2.55 µM and the GI50 (UACC-257) was 3.24 µM. For the same compound, the GI50 (SF-295) was 4.89 µM, the GI50 (Malme-3M) was 6.13 µM and the GI50 (COLO 205) was 3.13 µM. For the same compound, the GI50 (UO-31) was 3.85 µM, the GI50 (HCT-15) was 4.52 µM and the GI50 (MDA-MB-435) was 0.672 µM. For the same compound, the GI50 (IGROV-1) was 5.78 µM, the GI50 (MCF7) was 3.03 µM and the GI50 (A498) was 1.91 µM. For the same compound, the GI50 (RPMI-8226) was 2.16 µM, the GI50 (NCI-H522) was 1.82 µM and the GI50 (OVCAR-8) was 3.76 µM. It also gave a GI50 (786-0) of 4.17 µM, a GI50 [4] of 2.17 µM and a GI50 (MOLT-4) of 3.72 µM. The GI50 (HL-60(TB)) was 3.08 µM, the GI50 (KM12) was 2.94 µM and the GI50 (NCI-H23) was 3.55 µM. For the same compound, the GI50 (ACHN) was 4.85 µM, the GI50 (SN12C) was 5.53 µM and the GI50 (SK-MEL-28) was 3.5 µM. The GI50 (T47D) was 4.16 µM.
